Data set [1] addresses T1, steroid 17α-hydroxylase and/or steroid C17-20 lyase (Rattus norvegicus, UniProt P11715).
T1 construct: the testis of rats (SD, male) was homogenized and centrifuged to obtain microsome; from tissue; host or cells: rat (SD, male) testis microsomes
T1 sequence (P11715 1-507): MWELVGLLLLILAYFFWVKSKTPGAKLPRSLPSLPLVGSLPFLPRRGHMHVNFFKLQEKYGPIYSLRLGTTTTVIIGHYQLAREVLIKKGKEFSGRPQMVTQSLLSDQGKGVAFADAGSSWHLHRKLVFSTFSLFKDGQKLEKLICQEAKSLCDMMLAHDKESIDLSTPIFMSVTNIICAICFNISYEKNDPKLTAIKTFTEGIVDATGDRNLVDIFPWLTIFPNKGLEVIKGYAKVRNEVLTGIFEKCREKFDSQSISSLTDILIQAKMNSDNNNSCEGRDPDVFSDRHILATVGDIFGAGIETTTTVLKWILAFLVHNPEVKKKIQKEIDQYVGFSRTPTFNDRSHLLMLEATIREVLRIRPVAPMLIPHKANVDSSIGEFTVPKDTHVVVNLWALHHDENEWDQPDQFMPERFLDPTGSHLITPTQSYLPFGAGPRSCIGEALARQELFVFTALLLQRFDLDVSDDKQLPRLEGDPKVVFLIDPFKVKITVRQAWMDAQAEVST
Description: Measurement of steroid 17α-hydroxylase and/or steroid C17-20 lyase inhibitory activity (rat testis microsome). The data set is classed as biochemical. As to conditions: test compound 300 nM, substrate 25 μM 17α-hydroxyprogesterone, NADPH 500 μM. The protocol:
An experiment was carried out according to the method of T. Sergejew and R. W.
Hartmann (J. Enzyme Inhibition, 8, 113 (1994)). That is, the testis of rats (SD, male) was homogenized and centrifuged to obtain microsome. Each compound of the present invention prepared in Examples 1-13 was put into a micro tube (1.5 ml, Eppendorf Co.). After the addition of 100 μl of microsome protein solution, the concentration of which was adjusted to 0.1 mg/ml using 50 mM phosphate buffer solution (pH 7.4), 140 μl of 125 nmol NADPH solution, and 10 μl of 6.25 nmol 17α-hydroxyprogesterone, the mixture was incubated at 37° C. for 20 minutes. 50 μl of 1N hydrochloric acid and 1000 μl of ethyl acetate were sequentially added to the mixture. The mixture was shaken and centrifuged. The ethyl acetate layer was then washed with 250 μl of 50 mM phosphate buffer solution (pH 7.4) and 50 μl of IN hydrochloric acid, centrifuged, and concentrated. The concentrate was dissolved in 100 μl of acetonitrile. 10 μl of this solution was charged to high performance liquid chromatography. The amounts of the substrate and the formed product (androstenedione and testosterone) were measured to determine the enzyme activity. A sample without the test compound added was provided as a control. Steroid 17α-hydroxylase and/or steroid C17-20 lyase inhibitory activity (%) was calculated from the amounts of each substrate and product using the following equation (1). [formula]

Structures can show the parent of a compound that is named as a salt.

The inhibition is the percentage by which the read-out fell short of the control. The low end stands for a response near the control, the high end for a response far below the control. The term melting point denotes the temperature of the solid-liquid transition.

Regarding `Fc1ccc(-c2ccc3c(-c4cccnc4)coc3c2)cc1` [Example 3, 3-[6-(4-fluorophenyl)benzo[b]furan-3-yl] Pyridine], testing at 0.3 µM in data set [1] gave an inhibition of 64%.
Same read-out and setting: to `Fc1cccc(-c2ccc3c(-c4cccnc4)coc3c2)c1` [Example 4, 3-[6-(3-fluorophenyl)benzo[b]furan-3-yl] Pyridine] belongs 45%; to `Nc1cccc(-c2ccc3c(-c4cccnc4)coc3c2)c1` [Example 6, 3-[3-(3-pyridyl)benzo[b]furan-6-yl]phenylamine], 90%.
Turning to `c1cncc(-c2ccc3c(-c4cccnc4)coc3c2)c1` [Example 7, 3-[6-(3-pyridyl)benzo[b]furan-3-yl]pyridine], the melting point fell in the range of 140.5 to 141.5 °C. This compound yielded an inhibition at 0.3 µM in data set [1] of 75%.
In data set [1], `c1ccc(-c2ccc3c(-c4cccnc4)coc3c2)cc1` [Example 9, 3-(6-phenylbenzo[b]furan-3-yl)pyridine] yielded an inhibition at 0.3 µM of 45%.
Still for that read-out and setting: to `Oc1cccc(-c2ccc3c(-c4cccnc4)coc3c2)c1` [Example 11, 3-[3-(3-pyridyl)benzo[b]furan-6-yl]phenol] belongs 81%.
Regarding `Oc1ccc(-c2ccc3c(-c4cccnc4)coc3c2)cc1O` [Example 12, 4-[3-(3-pyridyl)benzo[b]furan-6-yl]-1,2-benzenediol hydrobromide], in data set [1], the inhibition at 0.3 µM stood at 66%.
As for `c1cncc(-c2coc3cc(-c4ccsc4)ccc23)c1` [Example 13, 3-[6-(3-thienyl)benzo[b]furan-3-yl]pyridine hydrochloride], in data set [1], the inhibition at 0.3 µM stood at 89%.

Values taken from patent US6689798B2, “Benzofuran derivatives” (Daiichi Pharmaceutical Co., Ltd., priority 2000, dated 2004).
